# Experimental data as given in patent US7166618B2, “Nitrosated and nitrosylated cyclooxygenase-2 inhibitors, compositions and methods of use” (NitroMed, Inc., priority 1999, dated 2007).
# Key:
# human COX-2 = target: T1, human COX-2 (Homo sapiens, UniProt P35354); assay: Assay for human COX-2 activity (COX Inhibitor Screening Assay, Cayman); format: biochemical; conditions: human COX-2, at 10 μM
# T1 construct: purchased Cayman Chemical, Ann Arbor, Mich
# T1 sequence (P35354 18-604): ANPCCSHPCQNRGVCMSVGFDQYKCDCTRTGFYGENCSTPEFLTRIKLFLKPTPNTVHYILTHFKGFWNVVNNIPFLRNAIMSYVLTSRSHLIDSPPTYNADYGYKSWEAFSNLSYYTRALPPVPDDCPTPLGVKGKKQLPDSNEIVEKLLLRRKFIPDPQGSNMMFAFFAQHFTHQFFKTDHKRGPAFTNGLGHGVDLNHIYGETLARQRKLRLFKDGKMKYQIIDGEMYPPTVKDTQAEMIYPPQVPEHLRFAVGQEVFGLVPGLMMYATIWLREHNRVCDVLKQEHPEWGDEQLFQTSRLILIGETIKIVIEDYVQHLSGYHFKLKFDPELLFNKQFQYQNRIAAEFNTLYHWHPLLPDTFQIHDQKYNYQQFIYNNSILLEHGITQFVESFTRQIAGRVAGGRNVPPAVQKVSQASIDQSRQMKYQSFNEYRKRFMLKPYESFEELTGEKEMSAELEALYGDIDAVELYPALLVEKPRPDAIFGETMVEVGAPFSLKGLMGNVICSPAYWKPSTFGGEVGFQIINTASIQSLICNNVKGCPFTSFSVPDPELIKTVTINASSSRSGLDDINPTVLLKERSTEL
# Experimental: The human COX-1 and COX-2 activities and the measurement of the prostaglandin products synthesized were performed using the COX Inhibitor Screening Assay (Cayman Chemical, Ann Arbor, Mich., which also contained the Prostaglandin Screening EIA Kit, used for prostaglandin quantification). The test compounds were dissolved at 50 times the highest final reaction concentration in DMSO or any other suitable solvent as stock solutions. These stock solutions were then diluted in the same solvent. Eight glass test tubes (13×100 mm) were placed in a 25° C. water bath. To each test tube was added 950 μL of reaction buffer (0.1 M Tris-HCl, pH 8.0, containing 5 mM EDTA, and 2 mM phenol), 10 μL of 100 µM heme solution, and 10 μL (5 units) of either human COX-1 or COX-2 and the resulting mixture incubated with the enzyme for 2 minutes. Twenty μL of the solvent was added to one tube (100% initial activity or solvent control) and 20 μL of each dilution of the test compound was added to one tube each. Each tube was vortexed immediately after the addition. The enzyme was incubated with the inhibitor for 20 minutes at 25° C. The enzymatic reaction was then initiated by the addition of 10 μL of freshly prepared 10 mM arachidonic acid (neutralized with KOH), vortexed and then incubated for 2 minutes (or, in some cases as indicated, 30 seconds) at 37° C. The reaction was terminated by the addition of 50 μL of 1 M HCl, vortexed and placed at room temperature. One hundred microliters of a saturated stannous chloride solution (50 mg/mL of 0.1 M HCl) was added and the reaction mixture was allowed to stand at room temperature for at least 5 min.
# The prostaglandins (PG) produced in the reactions were assayed, after a 2,000-fold dilution, using the Prostaglandin Screening EIA Kit (Cayman Chemical, Ann Arbor, Mich.). The assay contains an antibody with broad specificity for all the prostaglandin families (PGF, PGE, PGD, and thromboxane B-type) synthesized in the COX-1/COX 2 reactions. The synthesized prostaglandin competes with a PG-tagged acetylcholine esterase tracer for binding to the PG antibody. Binding of synthesized PG lowers the colorimetric development of the Ellman's Reagent (computed as % B/B0). The actual amount of synthesized PG was interpolated from a standard curve using known amounts of supplied prostaglandin E2 (PGE2) (PGE2 concentration vs. % B/B0). The data generated were the mean±standard deviation of triplicate wells in the EIA for a single reaction at a given inhibitor concentration.
# [1] = test system: rat aortic smooth muscle rings; assay: Relaxation of phenylephrine-contracted rat aortic smooth muscle rings; conditions: rings precontracted with 10 μM phenylephrine
# Experimental: Male Sprague-Dawley rats (Charles River Laboratories (Wilmington, Mass.) were euthanized by intraperiton injection of a high dose of sodium pentobarbitone (80–100 mg/kg). The thoracic aorta was rapidly excised and immediately placed in a Petri dish containing warm (37° C.) oxygenated (95% O2 and 5% CO2) Kreb's buffer (composition per millimolar: NaCl (119); KCl (4.69); CaCl2.H2O (2.52); MgSO4.7H2O (0.57); NaHCO3 (25); NaH2PO4.H2O (1.01) and glucose (11.1). Under a stereoscopic dissecting microscope, the aorta was cleaned, freed from adhering fat and connective tissues. The tissue was cut into ring segments, each approximately 2–3 mm in length.
# For experiments to measure relaxation of the tissue under various conditions, a stainless steel tissue holder and an U-shaped stainless steel wire were inserted into the lumen of the aortic ring. The tissue holder anchored the ring at the bottom of the organ bath whereas the end of the U-shaped steel wire was tied with fine silk thread so that it connected to the FT-202 transducer. The tissue holder and the steel wire along with the aortic ring were then suspended in a 5-mL double-jacketed temperature-controlled glass organ bath (Radnoti Glass Technology, Inc., Monrovia, Calif.) filled with fresh Kreb's buffer. A mixture of 95% O2 and 5% CO2 was bubbled through a porous sintered disc at the bottom of the bath. The rings were given an initial resting tension of 1.5 g and the preparation was allowed to equilibrate at the initial tension for about 90 minutes. During this equilibration period, the bath fluid was changed every 15 minutes and replaced with fresh prewarmed (37° C.) Kreb's buffer. The isometric tension of the aortic muscle at rest and its response to different stimuli were recorded on a Power Macintosh 6100 computer via a MacLab 8/S computer interface (CB Sciences, Inc, Milford, Mass.) after an initial amplification through a low-noise ETH-400 bioamplifier (CB Sciences, Inc, Milford, Mass.). Contractile responsiveness of the tissue strips was established with 10 μM phenylephrine and the strips were incubated with the drug for 20 minutes to establish a steady level of contraction. To test the relaxation effects, test compounds were added to the phenylephrine-precontracted strips in the tissue bath at cumulative concentrations of 0.1 μM to 0.1 mM. Concentration of test compounds was increased only after relaxation at the previous concentration had reached a plateau level.
structure (smiles),measurement,setting,value
"NS(=O)(=O)c1ccc(-c2c(-c3ccccc3)noc2CO[N+](=O)[O-])cc1 [Example 2b, 4-(5-((Nitrooxy)methyl)-3-phenylisoxazol-4-yl)benzenesulfonamide]",inhibition at 10 µM,human COX-2,100%
same,relaxation of aortic smooth muscle ring,[1]; 100 nM to 100 μM test compound,induced the relaxation of the aortic ring
same,relaxation compared with reference NO donor (ISDN or GSNO),[1]; comparator as in the value,comparable to that obtained with ISDN
